One experiment concerns the target T1, ERK1 (Homo sapiens, UniProt P27361).
T1 construct: purchased R&D 1879-KS-010
The experiment in a line: ERK1 enzyme activity test (ADP-Glo Kinase Assay). It counts as biochemical. The note with it: read-out: IC50 value of the inhibition on ERK1 enzyme activity. How it is done:
(§1) The purpose of this experiment is to detect the inhibitory ability of the compounds on the ERK1 enzyme activity, and evaluate the in vitro activity of the compounds based on the IC50. The ADP-Glo™ Kinase Assay Kit is used in this experiment. Under the action of the enzyme, the substrate is phosphorylated and ADP is produced at the same time. The ADP-Glo reagent is added to remove the unreacted ATP in the reaction system, and the ADP produced by the reaction is detected with the kinase detection reagent. In the presence of the compound, the inhibition rate of the compound is calculated by measuring the signal value.
(§2) ATP was diluted to 300 μM with the buffer. The compound was dissolved in DMSO to prepare a stock solution with an initial concentration of 20 mM, and then Bravo (SGC120TH34702, Agilent Technologies) was used to dilute the stock solution to desired concentrations. Finally, a 30 μL of a mixed solution of enzyme and substrate, and 1 μL, of different concentrations of the compound (the initial concentration is 50 μM, 4-fold dilution) were added to each well of the 384-well plate, and the plate was incubated at 30° C. for 10 minutes, and finally 1 μL of 300 μM ATP solution was added to each well, and the plate was incubated at 30° C. for 2 hours. Then 5 μL of ADP-Glo was added, and the plate was incubated at 30° C. for 40 minutes. Then 10 μL of Kinase detection buffer was added, and the plate was incubated at 30° C. for 40 minutes. The 384-well plate was taken out and placed in a microplate reader (BMG labtech, PHERAstar FS), and the chemiluminescence was measured by the microplate reader.
(§3) Microsoft Excel, Graphpad Prism 5 was used to process and analyze the data.

For the next experiment, the target named is T2, ERK2 (Homo sapiens, UniProt P28482).
T2 construct: purchased R&D 1879-KS-010
The experiment in a line: ERK2 enzyme activity test (ADP-Glo Kinase Assay). The format is biochemical. The note with it: read-out: IC50 value of the inhibition on ERK2 enzyme activity. How it is done:
as §1, with “ERK2” for “ERK1”, “by” for “with”
as §2, with “to 500” for “to 300”, “a 3” for “a 30”, “1 μL” for “1 μL,”, “of 500” for “of 300”, “of kinase” for “of Kinase”
as §3
For orientation: ADP-Glo turns the ADP formed in a reaction into a luminescent signal.

The next experiment relates to Colo205 cells. The experiment in a line: In vitro proliferation inhibition test on Colo205 tumor cells (CellTiter-Glo). The format is cell-based. The note with it: Homo sapiens, COLO 205, 72 h; 3 days of culture, CTG; read-out: IC50 value of the inhibition on in vitro Colo205 tumor cell proliferation. How it is done: The purpose of this experiment is to test the inhibitory activity of the compounds on the proliferation of Colo205 cells (CCL-222, ATCC) in vitro. The cells were treated in vitro with different concentrations of the compounds. After 3 days of culture, the cell proliferation was tested with CTG (CellTiter-Glo® Luminescent Cell Viability Assay, Promega, Catalog No. G7573) reagent, and the in vitro activity of the compounds was evaluated according to the IC50 value.
In the following, taking the in vitro proliferation inhibition test method of Colo205 cells as an example, the method in the present disclosure for testing the in vitro proliferation inhibitory activity of the compounds of the present disclosure is described. This method is also applicable to, but not limited to, the in vitro proliferation inhibitory activity test on other tumor cells.
Colo205 cells were digested, centrifuged and then resuspended. The single cell suspension was mixed well, and the density of viable cells was adjusted to 5.0×10^4 cells/ml with cell culture medium (RPMI1640+2% FBS), and 95 μl/well was added to a 96-well cell culture plate. Only 100 μl medium was added to the peripheral wells of the 96-well plate. The culture plate was incubated in an incubator for 24 hours (37° C., 5% CO2).
The compound was dissolved in DMSO and prepared into a stock solution with an initial concentration of 20 mM. The initial concentration of the small molecule compound was 2 mM, and then 4-fold diluted into 9 points, and the 10th point is DMSO. Another 96-well plate was taken and 90 μl of cell culture medium (RPMI1640+2% FBS) was added to each well, then 10 μl of different concentrations of the test sample was added to each well. The mixture was mixed well, and then 5 μL of different concentrations of the test sample was added to the cell culture plate with duplicate well for each sample. The culture plate was incubated in an incubator for 3 days (37° C., 5% CO2). The 96-well cell culture plate was taken out, 50 μL CTG solution was added to each well, and the plate was incubated for 10 minutes at room temperature. In a microplate reader (BMG labtech, PHERAstar FS), chemiluminescence was measured with the microplate reader.
as §3
(Cellular ATP, detected with luciferase, serves as a proxy for viable cell number.)

T1 sequence (P27361 whole entry): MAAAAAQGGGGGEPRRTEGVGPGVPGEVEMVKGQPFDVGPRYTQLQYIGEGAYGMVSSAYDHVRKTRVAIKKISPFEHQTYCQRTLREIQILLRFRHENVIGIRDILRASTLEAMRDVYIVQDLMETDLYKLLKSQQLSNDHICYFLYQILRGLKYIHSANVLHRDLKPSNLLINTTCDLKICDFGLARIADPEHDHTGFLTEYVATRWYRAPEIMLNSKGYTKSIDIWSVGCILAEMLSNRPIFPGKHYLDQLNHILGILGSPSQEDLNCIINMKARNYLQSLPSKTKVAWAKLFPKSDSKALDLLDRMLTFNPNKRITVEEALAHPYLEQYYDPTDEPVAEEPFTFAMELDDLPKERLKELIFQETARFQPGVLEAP
T2 sequence (P28482 2-360 limits assumed): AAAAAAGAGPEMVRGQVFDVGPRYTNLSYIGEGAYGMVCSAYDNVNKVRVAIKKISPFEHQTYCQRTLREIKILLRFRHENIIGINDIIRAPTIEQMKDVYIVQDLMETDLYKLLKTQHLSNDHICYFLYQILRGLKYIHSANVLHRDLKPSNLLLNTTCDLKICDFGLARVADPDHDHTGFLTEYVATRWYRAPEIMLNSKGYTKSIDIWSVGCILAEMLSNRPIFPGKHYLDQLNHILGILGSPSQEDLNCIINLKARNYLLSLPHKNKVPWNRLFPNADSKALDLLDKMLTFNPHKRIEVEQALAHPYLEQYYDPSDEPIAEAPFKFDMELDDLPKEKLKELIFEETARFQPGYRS

Take `Cn1nccc1Nc1nccc(-c2cc3n(c2)C(=O)N([C@H](CO)c2cccc(F)c2)C3)n1` [Example 19, (S)-2-(1-(3-Fluorophenyl)-2-hydroxyethyl)-6-(2-((1-methyl-1H-pyrazol-5-yl)amino)pyrimidin-4-yl)-1H-pyrrolo[1,2-c]imidazol-3(2H)-one]: the IC50 on ERK1 was 24 nM; at ERK2, 20 nM; in the experiment with Colo205 cells it was 101 nM.
For `Cn1nccc1Nc1nccc(-c2cc3n(c2)C(=O)N([C@H](CO)c2ccc(Cl)cc2)C3)n1` [Example 21, (S)-2-(1-(4-Chlorophenyl)-2-hydroxyethyl)-6-(2-((1-methyl-1H-pyrazol-5-yl)amino)pyrimidin-4-yl)-1H-pyrrolo[1,2-c]imidazol-3(2H)-one], in that order: 67 nM, 45 nM and 120 nM.
For the compound `O=C1N([C@H](CO)c2cccc(Cl)c2)Cc2cc(-c3nc(NC4CCOCC4)ncc3Cl)cn21` [Example 4, (S)-6-(5-Chloro-2-((tetrahydro-2H-pyran-4-yl)amino)pyrimidin-4-yl)-2-(1-(3-chlorophenyl)-2-hydroxyethyl)-1H-pyrrolo[1,2-c]imidazol-3(2H)-one], the IC50 on ERK2 came to 6 nM; in the experiment on Colo205 cells, 82 nM.
For `O=C1N([C@H](CO)c2cccc(Cl)c2)Cc2cc(-c3nc(NC4CC(O)C(F)C4)ncc3Cl)cn21` (stereo partly drawn) [Example 7, 6-(5-Chloro-2-((3-fluoro-4-hydroxycyclopentyl)amino)pyrimidin-4-yl)-2-((S)-1-(3-chlorophenyl)-2-hydroxyethyl)-1H-pyrrolo[1,2-c]imidazol-3(2H)-one], in that order: 63 nM and 158 nM.
With `COc1cc(F)cc([C@@H](CO)N2Cc3cc(-c4nc(Nc5ccnn5C)ncc4C)cn3C2=O)c1` [Example 1, (S)-2-(1-(3-Fluoro-5-methoxyphenyl)-2-hydroxyethyl)-6-(5-methyl-2-((1-methyl-1H-pyrazol-5-yl)amino)pyrimidin-4-yl)-1H-pyrrolo[1,2-c]imidazol-3(2H)-one], the IC50 at ERK1 came out at 9 nM; on ERK2 it was 2 nM; in the experiment on Colo205 cells, 90 nM.
With `Cn1nccc1Nc1ncc(Cl)c(-c2cc3n(c2)C(=O)N([C@H](CO)c2cccc(Cl)c2)C3)n1` [Example 2, (S)-6-(5-Chloro-2-((1-methyl-1H-pyrazol-5-yl)amino)pyrimidin-4-yl)-2-(1-(3-chlorophenyl)-2-hydroxyethyl)-1H-pyrrolo[1,2-c]imidazol-3(2H)-one], the IC50 amounted to 3 nM at ERK2 and 32 nM in the experiment with Colo205 cells.
In the case of `Cn1nccc1Nc1nccc(-c2cc3n(c2)C(=O)N([C@H](CO)c2ccc(F)c(Cl)c2)C3)n1` [Example 16, (S)-2-(1-(3-Chloro-4-fluorophenyl)-2-hydroxyethyl)-6-(2-((1-methyl-1H-pyrazol-5-yl)amino)pyrimidin-4-yl)-1H-pyrrolo[1,2-c]imidazol-3(2H)-one], the IC50 at ERK1 is 70 nM; on ERK2, 44 nM; in the experiment on Colo205 cells it was 180 nM.
Take `Cc1cnc(Nc2ccnn2C)nc1-c1cc2n(c1)C(=O)N(Cc1ccc(F)c(F)c1)C2` [Example 18, 2-(3,4-Difluorobenzyl)-6-(5-methyl-2-((1-methyl-1H-pyrazol-5-yl)amino)pyrimidin-4-yl)-1H-pyrrolo[1,2-c]imidazol-3(2H)-one]: the IC50 at ERK2 is 16 nM.
Same read-out and setting: the figure for `Cc1cnc(Nc2ccnn2C)nc1-c1cc2n(c1)C(=O)N([C@H](CN)c1cccc(Cl)c1)C2` [Example 11, (S)-2-(2-Amino-1-(3-chlorophenyl)ethyl)-6-(5-methyl-2-((1-methyl-1H-pyrazol-5-yl)amino)pyrimidin-4-yl)-1H-pyrrolo[1,2-c]imidazol-3(2H)-one] is 18 nM; for `Cc1cnc(Nc2ccnn2C)nc1-c1cc2n(c1)C(=O)N([C@H](C)c1cccc(Cl)c1)C2` [Example 12, (R)-2-(1-(3-Chlorophenyl)ethyl)-6-(5-methyl-2-((1-methyl-1H-pyrazol-5-yl)amino)pyrimidin-4-yl)-1H-pyrrolo[1,2-c]imidazol-3(2H)-one] it is 45 nM.
Consider `Cc1cnc(Nc2ccnn2C)nc1-c1cc2n(c1)C(=O)N([C@H](CO)c1ccc(F)c(Cl)c1)C2` [Example 6, (S)-2-(1-(3-Chloro-4-fluorophenyl)-2-hydroxyethyl)-6-(5-methyl-2-((1-methyl-1H-pyrazol-5-yl)amino)pyrimidin-4-yl)-1H-pyrrolo[1,2-c]imidazol-3(2H)-one], for which the results for the IC50 at ERK1, on ERK2 and in the experiment with Colo205 cells were 14 nM, 10 nM and 74 nM, respectively.
For `Cc1cnc(Nc2ccnn2C)nc1-c1cc2n(c1)C(=O)N([C@H](CO)c1ccc(Cl)c(F)c1)C2` [Example 14, (S)-2-(1-(4-Chloro-3-fluorophenyl)-2-hydroxyethyl)-6-(5-methyl-2-((1-methyl-1H-pyrazol-5-yl)amino)pyrimidin-4-yl)-1H-pyrrolo[1,2-c]imidazol-3(2H)-one], the IC50 was 5 nM on ERK2 and 92 nM in the experiment with Colo205 cells.
As to `CNC[C@H](c1cccc(Cl)c1)N1Cc2cc(-c3nc(Nc4ccnn4C)ncc3C)cn2C1=O` [Example 13, (S)-2-(1-(3-Chlorophenyl)-2-(methylamino)ethyl)-6-(5-methyl-2-((1-methyl-1H-pyrazol-5-yl)amino)pyrimidin-4-yl)-1H-pyrrolo[1,2-c]imidazol-3(2H)-one], the IC50 on ERK1 was found to be 2 nM; on ERK2 it was 2 nM; in the experiment with Colo205 cells, 99 nM.
Consider `Cc1cnc(Nc2ccnn2C)nc1-c1cc2n(c1)C(=O)N([C@H](CO)c1cccc(Cl)c1)CC2` [Example 9, (S)-2-(1-(3-Chlorophenyl)-2-hydroxyethyl)-6-(5-methyl-2-((1-methyl-1H-pyrazol-5-yl)amino)pyrimidin-4-yl)-3,4-dihydropyrrolo[1,2-c]pyrimidin-1(2H)-one], for which the IC50 on ERK1 was 12 nM; in the experiment on Colo205 cells, 77 nM.
Regarding `C[C@@H](CO)Nc1ncc(Cl)c(-c2cc3n(c2)C(=O)N([C@H](CO)c2cccc(Cl)c2)C3)n1` [Example 5, 6-(5-Chloro-2-(((S)-1-hydroxypropan-2-yl)amino)pyrimidin-4-yl)-2-((S)-1-(3-chlorophenyl)-2-hydroxyethyl)-1H-pyrrolo[1,2-c]imidazol-3(2H)-one], the results for the IC50 on ERK1 and in the experiment on Colo205 cells were 10 nM and 81 nM, respectively.
